This note sets out measurements from ChEMBL document CHEMBL4476867, “Hydroxy formamide derivatives and their use” (2016).

The target of test [1] is T1, Bone morphogenetic protein 1 (Homo sapiens, UniProt P13497).
T1 sequence (P13497 whole entry): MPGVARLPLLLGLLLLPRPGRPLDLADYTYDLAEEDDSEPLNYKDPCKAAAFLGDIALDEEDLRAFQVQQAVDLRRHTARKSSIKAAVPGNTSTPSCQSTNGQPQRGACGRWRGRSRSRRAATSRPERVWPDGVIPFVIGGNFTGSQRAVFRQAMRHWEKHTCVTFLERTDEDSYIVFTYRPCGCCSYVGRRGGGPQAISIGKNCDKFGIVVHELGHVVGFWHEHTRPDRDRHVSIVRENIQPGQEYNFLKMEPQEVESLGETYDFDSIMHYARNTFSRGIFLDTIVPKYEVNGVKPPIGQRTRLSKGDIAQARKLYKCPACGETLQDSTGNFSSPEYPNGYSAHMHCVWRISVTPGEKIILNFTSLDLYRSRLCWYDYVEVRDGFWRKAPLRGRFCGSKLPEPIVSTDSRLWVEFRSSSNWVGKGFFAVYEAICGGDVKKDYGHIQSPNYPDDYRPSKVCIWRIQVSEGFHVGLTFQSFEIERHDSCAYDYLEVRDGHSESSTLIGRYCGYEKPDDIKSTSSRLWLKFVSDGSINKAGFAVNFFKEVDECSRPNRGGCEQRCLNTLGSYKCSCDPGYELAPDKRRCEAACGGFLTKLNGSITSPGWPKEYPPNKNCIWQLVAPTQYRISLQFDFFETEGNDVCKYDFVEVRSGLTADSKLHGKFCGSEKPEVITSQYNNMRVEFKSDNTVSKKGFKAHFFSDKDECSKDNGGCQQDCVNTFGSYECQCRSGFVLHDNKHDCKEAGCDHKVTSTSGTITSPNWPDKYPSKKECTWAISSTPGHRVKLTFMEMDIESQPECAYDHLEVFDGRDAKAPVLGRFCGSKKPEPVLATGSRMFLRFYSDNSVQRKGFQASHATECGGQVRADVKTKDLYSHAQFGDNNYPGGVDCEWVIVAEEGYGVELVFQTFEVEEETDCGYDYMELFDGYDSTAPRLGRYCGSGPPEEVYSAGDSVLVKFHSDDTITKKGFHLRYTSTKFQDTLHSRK
In words: Inhibition of C-terminal FLAG-6x-His epitope tagged and N-terminal human RAGE signal sequence tagged human BMP1 (23 to 721 amino acids) expressed in CHO-E1 cells pre-incubated for 10 mins before promyostatin peptide substrate addition and measured after 60 mins using 0.5 nM BMP1 by FRET based assay. Format: cell-based.

Test [2] concerns the target T1, Bone morphogenetic protein 1. The experiment in a line: Inhibition of C-terminal FLAG-6x-His epitope tagged and N-terminal human RAGE signal sequence tagged human BMP1 (23 to 721 amino acids) expressed in CHO-E1 cells pre-incubated for 10 mins before promyostatin peptide substrate addition and measured after 30 mins using 50 nM BMP1 by FRET based assay. The class given is cell-based.

The next test concerns the target Tolloid-like protein 1 (Homo sapiens, UniProt O43897, I156V/N221S/V284A). In words: Inhibition of recombinant human TLL1 I156V/N221S/V284A mutant expressed in CHOE1A cells pre-incubated for 10 mins before promyostatin peptide substrate addition and measured after 60 mins by FRET based assay. The class given is cell-based.
For a further test, the target named is T2, Tolloid-like protein 2 (Homo sapiens, UniProt Q9Y6L7).
T2 sequence (Q9Y6L7 whole entry): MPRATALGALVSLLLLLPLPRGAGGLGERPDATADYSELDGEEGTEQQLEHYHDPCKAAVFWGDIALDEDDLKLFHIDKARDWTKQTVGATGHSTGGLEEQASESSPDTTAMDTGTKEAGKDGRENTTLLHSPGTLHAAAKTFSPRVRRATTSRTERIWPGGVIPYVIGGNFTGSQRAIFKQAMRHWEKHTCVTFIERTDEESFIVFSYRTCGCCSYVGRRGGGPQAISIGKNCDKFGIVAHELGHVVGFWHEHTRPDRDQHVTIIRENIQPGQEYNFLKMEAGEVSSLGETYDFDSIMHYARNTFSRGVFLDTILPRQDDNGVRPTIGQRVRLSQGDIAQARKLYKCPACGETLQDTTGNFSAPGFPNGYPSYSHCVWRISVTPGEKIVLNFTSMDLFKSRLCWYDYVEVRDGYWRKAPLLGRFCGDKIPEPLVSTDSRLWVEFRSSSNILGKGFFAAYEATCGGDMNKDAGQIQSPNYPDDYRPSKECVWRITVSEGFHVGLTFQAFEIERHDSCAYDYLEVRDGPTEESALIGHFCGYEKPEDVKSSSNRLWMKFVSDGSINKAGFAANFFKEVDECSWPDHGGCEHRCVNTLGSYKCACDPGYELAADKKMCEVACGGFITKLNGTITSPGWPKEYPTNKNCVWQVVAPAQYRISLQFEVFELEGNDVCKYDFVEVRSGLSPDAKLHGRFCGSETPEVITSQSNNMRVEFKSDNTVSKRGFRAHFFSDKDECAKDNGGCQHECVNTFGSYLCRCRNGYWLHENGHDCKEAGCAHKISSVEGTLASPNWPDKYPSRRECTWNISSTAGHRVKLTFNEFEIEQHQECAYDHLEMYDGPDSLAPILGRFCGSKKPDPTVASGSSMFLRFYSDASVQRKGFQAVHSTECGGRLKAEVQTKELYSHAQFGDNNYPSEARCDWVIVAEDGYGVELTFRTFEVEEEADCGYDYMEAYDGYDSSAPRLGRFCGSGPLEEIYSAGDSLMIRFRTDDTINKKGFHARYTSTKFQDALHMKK
The experiment in a line: Inhibition of C-terminal Avi-6x-His epitope tagged and N-terminal human RAGE signal sequence tagged recombinant human TLL2 (26 to 1015 amino acids) expressed in CHOE1A cells incubated for 60 mins with promyostatin peptide substrate by FRET based assay. The class given is cell-based.

Test [3] is described as follows: Reduction in PICP levels in human cardiac fibroblasts incubated for 24 to 48 hrs by ELISA. The class given is functional. The essentials:
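Human cardiac fibroblasts (passage 6 or below) were seeded at 10,000 to 15,000 cells per well in 96-well plates. The next day they were treated in ficoll crowding EMEM with 100 μM ascorbic acid and under 0.3% DMSO, for 24 to 48 hr at 37° C. Procollagen I C-terminal propeptide in the medium was measured with a Quidel ELISA. IC50 came from fitting levels relative to untreated controls to a log(inhibitor)-response equation in GraphPad Prism.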

The nature of test [4]: Reduction in mature collagen deposition levels in human cardiac fibroblasts incubated for 24 to 48 hrs by immunostaining based assay. Format: functional. The essentials:
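Human cardiac fibroblasts in 96-well plates were treated in ficoll crowding EMEM with 100 μM ascorbic acid and under 0.3% DMSO, for 24 to 48 hr at 37° C. Cells were fixed in −20° C methanol for 10 min. They were stained with anti-mature collagen I antibody, Alexa647 secondary antibody and Hoechst, then imaged on an Operetta system. Collagen intensity was normalised to nuclei count per field, and IC50 was fitted in GraphPad Prism.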

Sequence of Tolloid-like protein 1 (O43897 148-1013 I156V/N221S/V284A limits assumed): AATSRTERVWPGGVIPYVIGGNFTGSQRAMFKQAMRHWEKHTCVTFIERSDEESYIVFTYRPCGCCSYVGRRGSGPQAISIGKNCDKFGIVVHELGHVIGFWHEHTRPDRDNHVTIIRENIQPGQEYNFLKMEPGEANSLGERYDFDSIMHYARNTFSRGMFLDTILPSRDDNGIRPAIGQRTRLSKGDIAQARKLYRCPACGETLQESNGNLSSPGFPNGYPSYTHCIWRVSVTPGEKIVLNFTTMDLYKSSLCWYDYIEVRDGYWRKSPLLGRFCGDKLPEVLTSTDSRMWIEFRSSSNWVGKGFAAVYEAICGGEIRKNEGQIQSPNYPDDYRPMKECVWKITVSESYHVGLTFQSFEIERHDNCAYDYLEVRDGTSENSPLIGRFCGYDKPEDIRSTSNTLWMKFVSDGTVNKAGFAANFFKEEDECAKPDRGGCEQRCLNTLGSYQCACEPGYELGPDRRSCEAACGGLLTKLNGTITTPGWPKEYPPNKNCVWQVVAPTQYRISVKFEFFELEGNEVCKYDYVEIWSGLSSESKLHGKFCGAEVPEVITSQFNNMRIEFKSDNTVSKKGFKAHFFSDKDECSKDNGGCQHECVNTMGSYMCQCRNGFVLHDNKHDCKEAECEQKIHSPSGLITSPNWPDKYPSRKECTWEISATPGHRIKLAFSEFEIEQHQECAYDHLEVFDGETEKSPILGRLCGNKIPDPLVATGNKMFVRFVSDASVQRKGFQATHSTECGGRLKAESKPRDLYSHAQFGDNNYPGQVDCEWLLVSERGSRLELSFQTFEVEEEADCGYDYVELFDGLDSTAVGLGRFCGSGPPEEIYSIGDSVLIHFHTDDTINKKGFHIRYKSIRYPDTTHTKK

In the case of `CCOc1cc(C(=O)N(CC(=O)O)CC(=O)O)cc(-c2ccc(C(=O)NCNC(=O)[C@H](CCc3ccc(F)cc3F)[C@@H](CC)N(O)C=O)o2)c1`, the IC50 in test [1] is < 126 nM; in test [2], < 200 nM; at Tolloid-like protein 1, < 398 nM; at Tolloid-like protein 2 it was < 794 nM; in test [3], < 3980 nM; in test [4] it was < 1000 nM.

As to `CCCCC[C@@H](C(=O)NCNC(=O)c1ccc(-c2ccc(C(=O)N[C@@H](CC(=O)O)C(=O)O)c(OCC(=O)O)c2)o1)[C@@H](CC)N(O)C=O`, the IC50 in test [1] was < 126 nM; in test [2] it was < 200 nM; on Tolloid-like protein 1, < 398 nM; on Tolloid-like protein 2 it was < 794 nM; in test [3], < 3980 nM; in test [4] it was < 1000 nM.

Regarding `CCCCC[C@@H](C(=O)NCNC(=O)c1ccc(-c2cc(O)cc(C(=O)O)c2)o1)[C@@H](CC)N(O)C=O`, the IC50 was < 126 nM in test [1]; < 200 nM in test [2]; < 398 nM at Tolloid-like protein 1; < 794 nM on Tolloid-like protein 2; < 3980 nM in test [3]; < 1000 nM in test [4].

With `CCCCC[C@@H](C(=O)NCNC(=O)c1ccc(-c2cc(O)c(C(=O)O)c(OCC)c2)o1)[C@@H](CC)N(O)C=O`, the IC50 is < 126 nM in test [1]; < 200 nM in test [2]; < 398 nM on Tolloid-like protein 1; < 794 nM on Tolloid-like protein 2; < 3980 nM in test [3]; < 1000 nM in test [4].

As to `CCCCC[C@@H](C(=O)NCNC(=O)c1ccc(-c2ccc(C(=O)N[C@H](CC(=O)O)C(=O)O)c(OCC)c2)o1)[C@@H](CC)N(O)C=O`, the IC50 in test [1] was < 126 nM; in test [2], < 200 nM; on Tolloid-like protein 1 it was < 398 nM; on Tolloid-like protein 2, < 794 nM; in test [3] it was < 3980 nM; in test [4], < 1000 nM.

With `CCCCC[C@@H](C(=O)NCNC(=O)c1ccc(-c2cc(OCC(=O)O)cc(C(=O)O)c2)o1)[C@@H](CC)N(O)C=O`, the half-maximal inhibitory concentration (IC50) in test [1] was < 126 nM; in test [2], < 200 nM; on Tolloid-like protein 1 it was < 398 nM; at Tolloid-like protein 2, < 794 nM; in test [3], < 3980 nM; in test [4], < 1000 nM.

Turning to `CCOc1cc(-c2ccc(C(=O)NCNC(=O)[C@H](CCc3ccccc3)[C@@H](CC)N(O)C=O)o2)ccc1C(=O)N[C@@H](CC(=O)O)C(=O)O`, the IC50 was < 126 nM in test [1]; < 200 nM in test [2]; < 398 nM at Tolloid-like protein 1; < 794 nM at Tolloid-like protein 2; < 3980 nM in test [3]; < 1000 nM in test [4].

Take `CCOc1cc(-c2ccc(C(=O)NCNC(=O)[C@H](CCc3ccccc3)[C@@H](CC)N(O)C=O)o2)ccc1C(=O)N(CC(=O)O)CC(=O)O`: the IC50 is < 126 nM in test [1]; < 200 nM in test [2]; < 398 nM at Tolloid-like protein 1; < 794 nM at Tolloid-like protein 2; < 3980 nM in test [3]; < 1000 nM in test [4].

Turning to `CCCCC[C@@H](C(=O)NCNC(=O)c1ccc(-c2ccc(C(=O)NCP(=O)(O)O)c(OCC)c2)o1)[C@@H](CC)N(O)C=O`, the IC50 is < 126 nM in test [1]; < 200 nM in test [2]; < 398 nM at Tolloid-like protein 1; < 794 nM at Tolloid-like protein 2; < 3980 nM in test [3]; < 1000 nM in test [4].

In the case of `CCCCC[C@@H](C(=O)NCNC(=O)c1ccc(-c2cc(OCC(=O)O)cc(C(=O)O)c2O)o1)[C@@H](CC)N(O)C=O`, the IC50 in test [1] is < 126 nM; in test [2], < 200 nM; at Tolloid-like protein 1, < 398 nM; on Tolloid-like protein 2, < 794 nM; in test [3] it was < 3980 nM; in test [4] it was < 1000 nM.

`CCOc1cc(-c2ccc(C(=O)NCNC(=O)[C@H](CCc3ccc(F)cc3F)[C@@H](CC)N(O)C=O)o2)ccc1C(=O)N[C@@H](CC(=O)O)C(=O)O`: the IC50 in test [1] is < 126 nM; in test [2], < 200 nM; at Tolloid-like protein 1 it was < 398 nM; at Tolloid-like protein 2, < 794 nM; in test [3], < 3980 nM; in test [4], < 1000 nM.
